Experimental data as given in article PMC4923583, “A Phase I/II Clinical Trial of Belinostat (PXD101) in Combination with Doxorubicin in Patients with Soft Tissue Sarcomas” (Sarcoma, 2016).
“And” between values parts separate entries of the source, which are not always exact repeats. Equal values may be shown once.

Tests used:
human tumour xenografts = settings: cited from earlier work
[1] = tested on: solid tumours and haematological neoplasms; design: method as in PMID 18245542, PMID 18510700; settings: ref [10], [11], cited from earlier work
[2] = tested on: patients with STS and other solid tumours; assay: Dose escalation: maximum tolerated dose (MTD) and dose limiting toxicities (DLT); type: in vivo; settings: highest tested dose level (cohort 4)
Method: Belinostat was administered as a 30-minute intravenous infusion every 24 hours on days 1–5 and on day 5 in combination with doxorubicin, in a 3-week schedule, and doxorubicin was given after belinostat. The dose escalation schedule was as follows: belinostat 600 mg/m^2 and 50 mg/m^2 doxorubicin (cohort 1), 600 mg/m^2 and 75 mg/m^2 doxorubicin (cohort 2), 800 mg/m^2 and 75 mg/m^2 doxorubicin (cohort 3), and 1000 mg/m^2 and 75 mg/m^2 doxorubicin (cohort 4).
Patients who achieved clinical benefit from the treatment (objective response or stable disease) could continue belinostat treatment beyond cycle 6. If the maximum cumulative dose of doxorubicin 450 mg/m^2 was reached, the treatment would continue with belinostat as monotherapy. In the phase I part, at least 3 patients were treated at each dose level. If a DLT was found in one of 3 patients, the cohort was expanded to a total of 6 patients.
Adverse events were graded using the NCI common terminology criteria for adverse events (NCI-CTCAE) version 3.0. […]

[3] = Pharmacokinetic analyses, plasma, cycle 1 day 4 and day 5
Method: (§1) The following PK parameters were determined: elimination half-life (t 1/2), maximum concentration (C max), time to maximum concentration (t max), area under the curve (AUC0−tlast and AUC∞), elimination rate constant (λz), and volume of distribution (V c and V ss). Blood sampling for belinostat alone was performed on cycle 1 day 4 (before treatment and 0 min, 5 min, 15 min, 30 min, 1 h, 2 h, 2 h 15 min, 2 h 30 min, 3 h, 4 h, 6 h, 8 h, and 24 h after treatment).

soft tissue sarcoma = settings: single-agent doxorubicin, ref [6], cited from earlier work
[4] = in vivo
Method: as §1

In the case of `O=C(/C=C/c1cccc(S(=O)(=O)Nc2ccccc2)c1)NO` [belinostat], the “Toxicity to the host mice” value (human tumour xenografts; mouse, in vivo) is given as “without apparent toxicity”, the “Growth of human tumour xenografts” value (human tumour xenografts; ref [9]) is given as “inhibits growth” and the “Maximum tolerated dose (MTD), monotherapy” value ([1]; 5 consecutive days repeated in a 3-week schedule) is given as 1000 mg/m^2/d. The “Duration of prolonged stable disease (SD) in 2 STS patients” value ([1]; belinostat monotherapy, one value per patient) was 7 months and 14 months, the “MTD of belinostat in combination with doxorubicin” value ([2]; 30-minute IV infusion days 1–5, 3-week schedule, doxorubicin on day 5) was 1000 mg/m^2/d and the clearance ([3]; 600 mg/m^2 Bel + 50 mg/m^2 doxorubicin, Day 5 (with doxorubicin), N: 1, individual parameter presented) was 1770 mL/min. For the same compound, the t last ([3]; Median (min–max), 600 mg/m^2 Bel + 50 mg/m^2 doxorubicin, Day 4 (Bel alone), N = 3) was 24.5 (22.4–24.6) h, the t last ([3]; Median (min–max), 600 mg/m^2 Bel + 50 mg/m^2 doxorubicin, Day 5 (with doxorubicin), N = 3) was 17.0 (17.0–20.1) h and the t last ([3]; Median (min–max), 600 mg/m^2 Bel + 75 mg/m^2 doxorubicin, Day 4 (Bel alone), N = 7) was 24.0 (8.55–24.5) h. The t last ([3]; Median (min–max), 600 mg/m^2 Bel + 75 mg/m^2 doxorubicin, Day 5 (with doxorubicin), N = 6) was 24.5 (16.2–24.7) h, the t last ([3]; Median (min–max), 800 mg/m^2 Bel + 75 mg/m^2 doxorubicin, Day 4 (Bel alone), N = 8) was 23.7 (8.47–24.6) h and the t last ([3]; Median (min–max), 800 mg/m^2 Bel + 75 mg/m^2 doxorubicin, Day 5 (with doxorubicin), N = 6) was 15.1 (8.50–24.6) h. The t last ([3]; Median (min–max), 1000 mg/m^2 Bel + 75 mg/m^2 doxorubicin, Day 4 (Bel alone), N = 21) was 8.65 (1.05–24.0) h, the t last ([3]; Median (min–max), 1000 mg/m^2 Bel + 75 mg/m^2 doxorubicin, Day 5 (with doxorubicin), N = 19) was 8.72 (8.50–24.7) h and the “Dose proportionality of pharmacokinetics” value ([3]; belinostat 600–1000 mg/m^2) was “dose-proportional pharmacokinetics”. For the same compound, the “Effect of coadministration of doxorubicin on belinostat exposure” value ([3]; day 5 vs day 4) was “no evidence that coadministration of doxorubicin had any effect”, the AUC(0-t) ([3]; human, plasma, intravenous, 600 mg/m^2, AUC0–tlast, 600 mg/m^2 Bel + 50 mg/m^2 doxorubicin, Day 4 (Bel alone), N = 3) was 10900 ng·h/mL and the AUC(0-t) ([3]; human, plasma, intravenous, 600 mg/m^2, AUC0–tlast, 600 mg/m^2 Bel + 75 mg/m^2 doxorubicin, Day 4 (Bel alone), N = 7) was 9670 ng·h/mL. The Cmax ([3]; human, plasma, intravenous, 600 mg/m^2, C max, 600 mg/m^2 Bel + 50 mg/m^2 doxorubicin, Day 4 (Bel alone), N = 3) was 21100 ng/mL, the Cmax ([3]; human, plasma, intravenous, 600 mg/m^2, C max, 600 mg/m^2 Bel + 75 mg/m^2 doxorubicin, Day 4 (Bel alone), N = 7) was 16800 ng/mL and the clearance ([3]; human, plasma, intravenous, 600 mg/m^2, CL, 600 mg/m^2 Bel + 75 mg/m^2 doxorubicin, Day 4 (Bel alone), N: 3) was 2150 mL/min. The Vd ([3]; human, plasma, intravenous, 600 mg/m^2, V ss, 600 mg/m^2 Bel + 75 mg/m^2 doxorubicin, Day 4 (Bel alone), N: 3) was 149 L, the half-life ([3]; human, plasma, intravenous, 600 mg/m^2, t 1/2, 600 mg/m^2 Bel + 75 mg/m^2 doxorubicin, Day 4 (Bel alone), N: 3) was 3.77 h and the Tmax ([3]; human, plasma, intravenous, 600 mg/m^2, t max, Median (min–max), 600 mg/m^2 Bel + 50 mg/m^2 doxorubicin, Day 4 (Bel alone), N = 3) was 0.533 h. It also gave a Tmax ([3]; human, plasma, intravenous, 600 mg/m^2, t max, Median (min–max), 600 mg/m^2 Bel + 75 mg/m^2 doxorubicin, Day 4 (Bel alone), N = 7) of 0.567 h, an AUC(0-t) ([3]; human, plasma, intravenous, 800 mg/m^2, AUC0–tlast, 800 mg/m^2 Bel + 75 mg/m^2 doxorubicin, Day 4 (Bel alone), N = 8) of 12200 ng·h/mL and a Cmax ([3]; human, plasma, intravenous, 800 mg/m^2, C max, 800 mg/m^2 Bel + 75 mg/m^2 doxorubicin, Day 4 (Bel alone), N = 8) of 21400 ng/mL. It also gave a clearance ([3]; human, plasma, intravenous, 800 mg/m^2, CL, 800 mg/m^2 Bel + 75 mg/m^2 doxorubicin, Day 4 (Bel alone), N: 4) of 2120 mL/min, a Vd ([3]; human, plasma, intravenous, 800 mg/m^2, V ss, 800 mg/m^2 Bel + 75 mg/m^2 doxorubicin, Day 4 (Bel alone), N: 4) of 107 L and a half-life ([3]; human, plasma, intravenous, 800 mg/m^2, t 1/2, 800 mg/m^2 Bel + 75 mg/m^2 doxorubicin, Day 4 (Bel alone), N: 4) of 1.91 h. It also gave a Tmax ([3]; human, plasma, intravenous, 800 mg/m^2, t max, Median (min–max), 800 mg/m^2 Bel + 75 mg/m^2 doxorubicin, Day 4 (Bel alone), N = 8) of 0.533 h, a half-life ([3]; human, plasma, intravenous, 1000 mg/m2, Geometric mean apparent elimination half-life (t 1/2), belinostat 600, 800 and 1000 mg/m^2, day 4 and day 5, range across groups) of 1.9 to 4.8 h and an AUC(0-t) ([3]; human, plasma, intravenous, 1000 mg/m^2, AUC0–tlast, 1000 mg/m^2 Bel + 75 mg/m^2 doxorubicin, Day 4 (Bel alone), N = 21) of 23100 ng·h/mL. The Cmax ([3]; human, plasma, intravenous, 1000 mg/m^2, C max, 1000 mg/m^2 Bel + 75 mg/m^2 doxorubicin, Day 4 (Bel alone), N = 21) was 41100 ng/mL, the clearance ([3]; human, plasma, intravenous, 1000 mg/m^2, CL, 1000 mg/m^2 Bel + 75 mg/m^2 doxorubicin, Day 4 (Bel alone), N: 18) was 1360 mL/min and the Vd ([3]; human, plasma, intravenous, 1000 mg/m^2, V ss, 1000 mg/m^2 Bel + 75 mg/m^2 doxorubicin, Day 4 (Bel alone), N: 18) was 51 L. For the same compound, the half-life ([3]; human, plasma, intravenous, 1000 mg/m^2, t 1/2, 1000 mg/m^2 Bel + 75 mg/m^2 doxorubicin, Day 4 (Bel alone), N: 18) was 1.48 h, the Tmax ([3]; human, plasma, intravenous, 1000 mg/m^2, t max, Median (min–max), 1000 mg/m^2 Bel + 75 mg/m^2 doxorubicin, Day 4 (Bel alone), N = 21) was 0.617 h and the AUC(0-t) ([3]; human, plasma, intravenous, AUC0–tlast, 600 mg/m^2 Bel + 50 mg/m^2 doxorubicin, Day 5 (with doxorubicin), N = 3) was 10400 ng·h/mL. It also gave an AUC(0-t) ([3]; human, plasma, intravenous, AUC0–tlast, 600 mg/m^2 Bel + 75 mg/m^2 doxorubicin, Day 5 (with doxorubicin), N = 6) of 10400 ng·h/mL, an AUC(0-t) ([3]; human, plasma, intravenous, AUC0–tlast, 800 mg/m^2 Bel + 75 mg/m^2 doxorubicin, Day 5 (with doxorubicin), N = 6) of 14600 ng·h/mL and an AUC(0-t) ([3]; human, plasma, intravenous, AUC0–tlast, 1000 mg/m^2 Bel + 75 mg/m^2 doxorubicin, Day 5 (with doxorubicin), N = 19) of 22100 ng·h/mL. The Cmax ([3]; human, plasma, intravenous, C max, 600 mg/m^2 Bel + 50 mg/m^2 doxorubicin, Day 5 (with doxorubicin), N = 3) was 18300 ng/mL, the Cmax ([3]; human, plasma, intravenous, C max, 600 mg/m^2 Bel + 75 mg/m^2 doxorubicin, Day 5 (with doxorubicin), N = 6) was 17400 ng/mL and the Cmax ([3]; human, plasma, intravenous, C max, 800 mg/m^2 Bel + 75 mg/m^2 doxorubicin, Day 5 (with doxorubicin), N = 6) was 26400 ng/mL. For the same compound, the Cmax ([3]; human, plasma, intravenous, C max, 1000 mg/m^2 Bel + 75 mg/m^2 doxorubicin, Day 5 (with doxorubicin), N = 19) was 37000 ng/mL, the clearance ([3]; human, plasma, intravenous, CL, 600 mg/m^2 Bel + 75 mg/m^2 doxorubicin, Day 5 (with doxorubicin), N: 3) was 1850 mL/min and the clearance ([3]; human, plasma, intravenous, CL, 800 mg/m^2 Bel + 75 mg/m^2 doxorubicin, Day 5 (with doxorubicin), N: 4) was 1520 mL/min. For the same compound, the clearance ([3]; human, plasma, intravenous, CL, 1000 mg/m^2 Bel + 75 mg/m^2 doxorubicin, Day 5 (with doxorubicin), N = 19) was 1420 mL/min, the Vd ([3]; human, plasma, intravenous, V ss, 600 mg/m^2 Bel + 50 mg/m^2 doxorubicin, Day 5 (with doxorubicin), N: 1, individual parameter presented) was 72.8 L and the Vd ([3]; human, plasma, intravenous, V ss, 600 mg/m^2 Bel + 75 mg/m^2 doxorubicin, Day 5 (with doxorubicin), N: 3) was 90.8 L. It also gave a Vd ([3]; human, plasma, intravenous, V ss, 800 mg/m^2 Bel + 75 mg/m^2 doxorubicin, Day 5 (with doxorubicin), N: 4) of 58.3 L, a Vd ([3]; human, plasma, intravenous, V ss, 1000 mg/m^2 Bel + 75 mg/m^2 doxorubicin, Day 5 (with doxorubicin), N = 19) of 57.6 L and a half-life ([3]; human, plasma, intravenous, t 1/2, 600 mg/m^2 Bel + 50 mg/m^2 doxorubicin, Day 5 (with doxorubicin), N: 1, individual parameter presented) of 2.53 h. The half-life ([3]; human, plasma, intravenous, t 1/2, 600 mg/m^2 Bel + 75 mg/m^2 doxorubicin, Day 5 (with doxorubicin), N: 3) was 4.83 h, the half-life ([3]; human, plasma, intravenous, t 1/2, 800 mg/m^2 Bel + 75 mg/m^2 doxorubicin, Day 5 (with doxorubicin), N: 4) was 2.14 h and the half-life ([3]; human, plasma, intravenous, t 1/2, 1000 mg/m^2 Bel + 75 mg/m^2 doxorubicin, Day 5 (with doxorubicin), N = 19) was 2.13 h. The Tmax ([3]; human, plasma, intravenous, t max, Median (min–max), 600 mg/m^2 Bel + 50 mg/m^2 doxorubicin, Day 5 (with doxorubicin), N = 3) was 0.567 h, the Tmax ([3]; human, plasma, intravenous, t max, Median (min–max), 600 mg/m^2 Bel + 75 mg/m^2 doxorubicin, Day 5 (with doxorubicin), N = 6) was 0.517 h and the Tmax ([3]; human, plasma, intravenous, t max, Median (min–max), 800 mg/m^2 Bel + 75 mg/m^2 doxorubicin, Day 5 (with doxorubicin), N = 6) was 0.533 h. It also gave a Tmax ([3]; human, plasma, intravenous, t max, Median (min–max), 1000 mg/m^2 Bel + 75 mg/m^2 doxorubicin, Day 5 (with doxorubicin), N = 19) of 0.633 h.

In the case of `COc1cccc2c1C(=O)c1c(O)c3c(c(O)c1C2=O)C[C@@](O)(C(=O)CO)C[C@@H]3O[C@H]1C[C@H](N)[C@H](O)[C@H](C)O1` [doxorubicin], the “Neutropenia (all grades)” value (soft tissue sarcoma; G-CSF allowed) is listed as 37%, the Response rate (soft tissue sarcoma) is listed as 14% and the “Effect of coadministration of belinostat on doxorubicin exposure” value [4] is listed as “no effect”. For the same compound, the “MTD of doxorubicin in combination with belinostat” value ([2]; day 5, 3-week schedule) was 75 mg/m^2, the half-life ([3]; human, plasma, intravenous) was 7.6 to 10.8 h and the Tmax ([3]; human, plasma, intravenous, 75 mg/m2, Median t max, doxorubicin 50 or 75 mg/m^2, day 5, range across groups) was 0.24 to 0.5 h.
